From article PMC10709440, “High-throughput ligand profile characterization in novel cell lines expressing seven heterologous insect olfactory receptors for the detection of volatile plant biomarkers” (Scientific Reports, 2023)

Experiments:
Assay in all cases: cell-based
Parameters in all cases: GCaMP6 calcium fluorescence in stable HEK293 OR+ORCO lines; peak dF normalised to 50 uM VUAA1 (=1)
[1] = molecular target: T1, Drosophila OR13a (Drosophila melanogaster, UniProt Q9VXL0); settings: HEK293; relative to 50 uM VUAA1 response; below 0.05 set to 0; read-out: % activation
T1 construct: expressed in transfected cells
T1 sequence (Q9VXL0 1-418): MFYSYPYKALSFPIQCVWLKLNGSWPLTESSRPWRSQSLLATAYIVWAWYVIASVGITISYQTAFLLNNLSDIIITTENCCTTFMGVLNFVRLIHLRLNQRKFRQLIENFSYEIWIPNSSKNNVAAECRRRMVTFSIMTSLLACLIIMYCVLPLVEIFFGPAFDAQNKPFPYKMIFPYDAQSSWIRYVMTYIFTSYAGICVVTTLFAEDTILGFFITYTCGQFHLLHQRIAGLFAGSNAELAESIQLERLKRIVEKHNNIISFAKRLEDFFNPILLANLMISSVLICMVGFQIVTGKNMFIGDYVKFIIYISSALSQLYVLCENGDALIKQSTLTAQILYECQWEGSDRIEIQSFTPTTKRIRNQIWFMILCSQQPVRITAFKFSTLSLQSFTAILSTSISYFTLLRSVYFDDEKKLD
T1 sequence (Q9VNB5 1-486 partner): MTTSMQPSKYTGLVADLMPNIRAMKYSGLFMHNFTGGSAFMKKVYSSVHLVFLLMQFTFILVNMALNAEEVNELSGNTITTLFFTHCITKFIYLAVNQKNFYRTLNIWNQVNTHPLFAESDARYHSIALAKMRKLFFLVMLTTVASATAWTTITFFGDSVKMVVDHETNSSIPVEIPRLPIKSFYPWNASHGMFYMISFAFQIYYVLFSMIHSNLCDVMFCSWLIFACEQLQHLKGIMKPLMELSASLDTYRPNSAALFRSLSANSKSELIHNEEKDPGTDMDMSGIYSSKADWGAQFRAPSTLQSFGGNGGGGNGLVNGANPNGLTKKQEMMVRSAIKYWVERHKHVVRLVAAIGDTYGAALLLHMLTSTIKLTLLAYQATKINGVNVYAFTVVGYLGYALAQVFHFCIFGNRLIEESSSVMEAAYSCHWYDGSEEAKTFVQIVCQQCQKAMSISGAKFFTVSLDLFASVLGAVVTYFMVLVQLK
Description: (§1) Twelve thousand to 18,000 cells were plated into each well of a black wall, transparent bottom 384-well microplate (Greiner) 48 h or 72 h before the measurements and were simultaneously treated with 1 μg/mL doxycycline. […] The plate has 24 columns, thus we could record responses in up to eight different cell lines in each plate. On the day of the experiment, the growth medium was replaced with 20 µL assay buffer/well (140 mM NaCl, 5 mM KCl, 2 mM CaCl2, 1 mM MgCl2, 5 mM HEPES-Na, 20 mM glucose, pH 7.3, 340 mOsm). […] Baseline fluorescence (F0) was recorded for 5 s, after which 7 µL VOC buffer (140 mM NaCl, 5 mM KCl, 2 mM CaCl2, 1 mM MgCl2, 5 mM HEPES-Na, 31 mM glucose, 0.1% DMSO, pH 7.3, 340 mOsm) was injected into each well in one row and the fluorescence response was recorded for an additional 30 s, at a rate of one read/sec. VOC solutions (VOC buffer with 4× concentration of the final measured VOC concentration, 9 µL/well was injected) were measured on the same wells in a second round with the same protocol. Each individual concentration of a specific VOC sample was recorded in three wells for the same cell line on the same microplate. The raw data were exported in xls file format, F0 and FMAX values, and the fluorescence intensity changes (∆F) were calculated in Excel (Microsoft) (Supplementary file Data summary.xlsx) using the following equation: ΔF=FMAX-F0/F0 (see also Fig. 1C). On each plate, we recorded the response of each cell line to 50 µM VUAA1. The average of these ∆F values of each cell line were used to calculate the VUAA1-normalized values for the rest of the plate, by dividing VOC response ∆F values by the average VUAA1 response ∆F value of the corresponding OR cell line. Each VOC-OR combination was measured three times as tec The recorded FMAX, F0, ∆F, VUAA1-normalized ∆F values, as well as the OR name, the name of the tested sample, and the final concentration for each well were copied into supplementary file Data summary.xlsx, that was used to summarize all the plates recorded. Here, the averages of the measurements were calculated for each receptor-VOC-concentration combination. […] Each VOC was measured at 1, 10, and 100 µM final concentration on each receptor. VUAA1-normalized response was calculated as described in methods.

[2] = molecular target: T2, Drosophila OR71a (Drosophila melanogaster, UniProt Q9VUK5); settings: HEK293; relative to 50 uM VUAA1 response; below 0.05 set to 0; read-out: % activation
T2 construct: expressed in transfected cells
T2 sequence (Q9VUK5 1-378): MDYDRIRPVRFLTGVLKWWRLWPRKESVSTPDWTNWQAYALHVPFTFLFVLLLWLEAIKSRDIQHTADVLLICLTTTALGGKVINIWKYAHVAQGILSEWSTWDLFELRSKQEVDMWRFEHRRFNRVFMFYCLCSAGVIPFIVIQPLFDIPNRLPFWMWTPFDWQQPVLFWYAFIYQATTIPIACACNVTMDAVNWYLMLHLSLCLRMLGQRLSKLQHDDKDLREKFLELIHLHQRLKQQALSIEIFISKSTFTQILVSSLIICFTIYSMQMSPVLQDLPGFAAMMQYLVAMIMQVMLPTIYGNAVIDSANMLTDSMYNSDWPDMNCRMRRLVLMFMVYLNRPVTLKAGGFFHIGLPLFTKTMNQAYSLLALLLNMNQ
T2 sequence (Q9VNB5 1-486 partner): T1 sequence (Q9VNB5 1-486 partner)
Description: as §1

[3] = molecular target: T3, Drosophila OR47a (Drosophila melanogaster, UniProt P81921); settings: relative to 50 uM VUAA1 response, below 0.05 set to 0; for activity at 1 µM / activity at 10 µM / activity at 100 µM: HEK293, read-out: % activation; for % activation: 10 µM, agonist, 10 / OR47a
T3 construct: expressed in transfected cells
T3 sequence (P81921 1-385): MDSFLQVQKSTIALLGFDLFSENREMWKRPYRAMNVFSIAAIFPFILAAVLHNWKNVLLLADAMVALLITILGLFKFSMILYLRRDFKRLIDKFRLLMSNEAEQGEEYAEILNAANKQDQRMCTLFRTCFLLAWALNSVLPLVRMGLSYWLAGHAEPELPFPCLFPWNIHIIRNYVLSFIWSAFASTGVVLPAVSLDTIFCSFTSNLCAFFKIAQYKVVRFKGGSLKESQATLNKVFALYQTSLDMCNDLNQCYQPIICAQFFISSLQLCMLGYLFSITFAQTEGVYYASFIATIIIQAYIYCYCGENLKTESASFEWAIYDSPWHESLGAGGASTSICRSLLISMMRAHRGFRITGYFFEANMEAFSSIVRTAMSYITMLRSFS
T3 sequence (Q9VNB5 1-486 partner): T1 sequence (Q9VNB5 1-486 partner)
Description: as §1

| Structure (SMILES) | activity at 1 µM [1] [%] | activity at 10 µM [1] [%] | activity at 100 µM [1] [%] | activity at 1 µM [2] [%] | activity at 10 µM [2] [%] | activity at 100 µM [2] [%] | activity at 1 µM [3] [%] | activity at 10 µM [3] [%] | activity at 100 µM [3] [%] | % activation [3] [%] |
| --- | --- | --- | --- | --- | --- | --- | --- | --- | --- | --- |
| C=C(C)C1CCC2(C)OC2C1 (single isomer, unassigned; (+)) [(+)-limonene oxide] | 0 | 0 | 0 | 0 | 0 | 0 | 0 | 0 | 0 |  |
| C=C1CC[C@@]23C[C@@H]1C(C)(C)[C@@H]2CC[C@H]3C [(+)-beta-cedrene] | 0 | 0 | 0 | 0 | 0 | 0 | 0 | 0 | 0 |  |
| C=C1[C@H]2CC[C@@H]3[C@H]2C(C)(C)CCC[C@]13C [(+)-longifolene] | 0 | 0 | 0 | 0 | 0 | 0 | 0 | 0 | 0 |  |
| C=C(C)[C@H]1CC=C(C)CC1 [(R)-(+)-limonene] | 0 | 0 | 0 | 0 | 0 | 0 | 0 |  | 0 | 0.05286 |
| C=C(C)[C@H]1CC=C(C)CC1 [limonene] |  |  |  |  |  |  |  |  |  | 0 |
| COC(=O)c1ccccc1 [methyl benzoate] |  |  |  |  |  |  |  |  | 5.95 |  |
| COC(=O)c1ccccc1O [methyl salicylate] |  |  |  |  |  | 11.5 |  |  |  |  |
| Cc1ccc(C)cc1 [p-xylene] |  |  |  |  | 6.15 |  |  |  |  |  |
| CCCCCOC(C)=O [pentyl acetate] |  |  |  |  |  | 8.7 |  |  |  |  |
| OCCc1ccccc1 [phenethyl alcohol] |  |  |  | 8.62 |  |  | 5.64 | 6.44 | 5.7 |  |
